In PMC12627933, “A First-In-Human Study of the SUMOylation Inhibitor Subasumstat in Patients with Advanced/Metastatic Solid Tumors or Relapsed/Refractory Hematologic Malignancies” (Cancer Research Communications, 2025):
“Also recorded” adds a separate entry of the source. Like-named read-outs stand apart in the source and are kept apart here.

Tests used:
[1] = Dose-limiting toxicities in cycle 1 and determination of MTD/RP2D (phase I dose escalation); format: in vivo; conditions: for n with DLTs during cycle 1: N = 6
Method: This study comprised two parts: a phase I dose escalation and a phase II dose expansion (Fig. 1). In the dose-escalation phase, patients were enrolled to receive subasumstat intravenously as a 1-hour (±10 minutes) infusion on days 1, 4, 8, and 11 of a 21-day cycle (biweekly schedule). […] Dose escalation was based on cohort with an adaptive design using Bayesian logistic regression modeling with overdose control. The starting dose of subasumstat was based on Good Laboratory Practice animal toxicity studies and supported by the estimation of a minimum anticipated biologically effective level. A detailed description of dose-limiting toxicities (DLT) is presented in the Supplementary Methods.
The occurrence of DLTs was assessed during cycle 1 (DLTs are described in the Supplementary Methods). Treatment-emergent adverse events (TEAE) were graded according to NCI Common Terminology Criteria for Adverse Events version 5.0, except for cytokine release syndrome (CRS), which was graded according to the American Society for Transplantation and Cellular Therapy Consensus Grading for CRS ([20]).
It was anticipated that approximately 70 DLT-evaluable patients would be enrolled for dose escalation. The safety analysis set included all patients who received at least one dose, even if incomplete, of subasumstat. […] The overall response rate (ORR) was defined as the proportion of patients who achieved complete response and partial response (PR) during the study. The disease control rate (DCR) was defined as the proportion of patients who achieved […] as per RECIST v1.1 for solid tumors or Lugano classification for lymphomas. […] Progression-free survival was summarized descriptively using the Kaplan–Meier method.
17. History of allogeneic tissue or solid organ transplant.
18. Second malignancy within the previous 3 years, except treated basal cell or localized squamous skin carcinomas, localized prostate cancer, cervical carcinoma in situ, resected colorectal adenomatous polyps, breast cancer in situ, or other malignancy for which the patient is not on active anticancer therapy.
19. Female patients who are lactating and breastfeeding or have a positive serum pregnancy test during the screening period or a positive urine pregnancy test on day 1 before first dose of study drug.
Definition of dose-limiting toxicities (DLTs) for phase I only
DLTs were defined as any AEs occurring in cycle 1 (unless considered unrelated to the study drug) with the following characteristics:
2. Nonfebrile grade 4 neutropenia (absolute neutrophil count [ANC] <0.5 ×
If myeloid growth factors are used, the event will be considered as DLT irrespective of the duration. […]
temperature of ≥38°C for ≥1 hour.
4. Grade 4 thrombocytopenia lasting ≥7 consecutive days. A platelet count <10
5. Grade 3 thrombocytopenia lasting longer than 14 days or accompanied by grade 2 bleeding or requiring transfusion.
6. Delay in the initiation of cycle 2 by ≥14 days due to a lack of adequate recovery of treatment-related hematological or nonhematologic toxicities.
7. Grade ≥3 nonhematologic toxicity with the following exceptions:
• Grade 3 arthralgia/myalgia that responds to nonsteroidal anti-inflammatory […]
• Grade 3 fatigue lasting fewer than 7 days.
• Grade 3 endocrine disorder that is managed with or without therapy and the patient is asymptomatic.
• Grade 3 or 4 inflammatory reaction attributed to a local antitumor […]
• Grade 3 infusion-related actions that resolves within 6 hours with appropriate clinical management.
• Grade 3 cytokine release syndrome that resolves to grade ≤1 in less than 7 days without end-organ damage.
• Asymptomatic laboratory changes (other than renal and hepatic laboratory values) that can be successfully supplemented (reversion of grade 4

[2] = tested on: advanced/metastatic solid tumors and relapsed/refractory hematologic malignancies; experiment: Clinical activity (RECIST v1.1 / Lugano criteria); format: in vivo, human; conditions: for DCR: 95% CI; for Patients with best response of SD: 90 mg twice weekly
Method: Disease response and progression were assessed for up to 48 months using CT and/or MRI scans with intravenous contrast and ^18fluorodeoxyglucose-PET imaging according to RECIST v1.1 criteria for solid tumors or Lugano criteria for lymphoma response ([21]).
It was anticipated that approximately 70 DLT-evaluable patients would be enrolled for dose escalation. The safety analysis set included all patients who received at least one dose, even if incomplete, of subasumstat. The tumor response–evaluable set included patients who received at least one dose of subasumstat, had sites of measurable disease at baseline and one post-baseline disease assessment, or discontinued treatment because of symptomatic deterioration or death prior to post-baseline evaluation. The overall response rate (ORR) was defined as the proportion of patients who achieved complete response and partial response (PR) during the study. The disease control rate (DCR) was defined as the proportion of patients who achieved […] as per RECIST v1.1 for solid tumors or Lugano classification for lymphomas. Both ORR and DCR were estimated with two-sided 95% exact binomial confidence intervals (CI). Progression-free survival was summarized descriptively using the Kaplan–Meier method.

[3] = tested on: MSS colorectal cancer and non-squamous NSCLC; parameters: method as in ref 18 = [18]; 18. Goel S , Ulahannan SV , Olszanski AJ , LoRusso P , Sanborn RE , Sharma S , . A phase 1b, multicenter, dose-escalation study of subasumstat (TAK-981) in combination with pembrolizumab in patients; conditions: in combination with pembrolizumab, cited from earlier work
[4] = cited from earlier work
[5] = phase II NSCLC expansion cohort
[6] = phase II cervical cancer expansion cohort

## Cc1sc(C(=O)c2cncnc2N[C@@H]2C[C@H](COS(N)(=O)=O)[C@@H](O)C2)cc1[C@@H]1NCCc2ccc(Cl)cc21 [subasumstat]
[1]; 60 mg BIW
  n with DLTs during cycle 1: 1
[1]; 60 mg BIW, subasumstat reduced to 40 mg BIW
  Description of DLT: Transient grade 3 ALT/AST
[1]; 90 mg BIW
  n with DLTs during cycle 1: 1
[1]; 90 mg BIW, study treatment discontinued
  Description of DLT: Grade 3 pneumonitis
[1]; 120 mg BIW
  n with DLTs during cycle 1: 2
[1]; 120 mg BIW, n = 1 each
  Description of DLT: Grade 3 stomatitis; also recorded: Grade 3 cognitive disorder
[1]; across a range of pharmacodynamic measures
  Biologically / pharmacodynamically active dose: ≥ 60 mg
[1]; phase I, 74 of 84 DLT-evaluable, all in twice weekly cohorts
  Patients reporting DLTs: four
[1]; twice weekly (days 1, 4, 8, 11 of 21-day cycle), intravenous
  MTD: 120 mg
[1]; twice weekly, intravenous
  Recommended phase II dose (RP2D): 90 mg
[2]; 99 response-evaluable patients, both phases, 40, 90 and 120 mg twice weekly
  Patients with confirmed PR: three
[2]; overall
  Patients with confirmed PR: 3%
[2]; overall, 26 patients
  Best response of SD: 26.3%
[2]; overall, n = 29/99, 20.57–39.29
  DCR: 29.3%
[2]; phase I, n = 21/75, 18.24–39.56
  DCR: 28%
[2]; [5]
  Median progression-free survival: 6.06 months
  Patients with best response of SD: four of seven
[2]; [6]
  Median progression-free survival: 3.78 months
  Patients with best response of SD: two of three
[2]; phase II, n = 8/24, 15.63–55.32
  DCR: 33%
[3]; MSS colorectal cancer dose-expansion cohort
  Antitumor activity: no activity was observed
[3]; relapsed/refractory MSS colorectal cancer and CPI-exposed non-squamous NSCLC, dose-escalation cohort
  Antitumor activity: preliminary antitumor activity
[4]; A20 lymphoma–bearing BALB/c mice
  Lymphopenia: transient lymphopenia
[4]; mouse model of pancreatic ductal adenocarcinoma
  B-cell depletion: transient B-cell depletion
[4]; preclinical mouse models
  Systemic toxicities: No systemic toxicities were observed
